This assay has as its target T1, MerTK (Homo sapiens, UniProt Q12866).
T1 construct: endogenous in cells; host or cells: Jurkat cells
T1 sequence (Q12866 21-999): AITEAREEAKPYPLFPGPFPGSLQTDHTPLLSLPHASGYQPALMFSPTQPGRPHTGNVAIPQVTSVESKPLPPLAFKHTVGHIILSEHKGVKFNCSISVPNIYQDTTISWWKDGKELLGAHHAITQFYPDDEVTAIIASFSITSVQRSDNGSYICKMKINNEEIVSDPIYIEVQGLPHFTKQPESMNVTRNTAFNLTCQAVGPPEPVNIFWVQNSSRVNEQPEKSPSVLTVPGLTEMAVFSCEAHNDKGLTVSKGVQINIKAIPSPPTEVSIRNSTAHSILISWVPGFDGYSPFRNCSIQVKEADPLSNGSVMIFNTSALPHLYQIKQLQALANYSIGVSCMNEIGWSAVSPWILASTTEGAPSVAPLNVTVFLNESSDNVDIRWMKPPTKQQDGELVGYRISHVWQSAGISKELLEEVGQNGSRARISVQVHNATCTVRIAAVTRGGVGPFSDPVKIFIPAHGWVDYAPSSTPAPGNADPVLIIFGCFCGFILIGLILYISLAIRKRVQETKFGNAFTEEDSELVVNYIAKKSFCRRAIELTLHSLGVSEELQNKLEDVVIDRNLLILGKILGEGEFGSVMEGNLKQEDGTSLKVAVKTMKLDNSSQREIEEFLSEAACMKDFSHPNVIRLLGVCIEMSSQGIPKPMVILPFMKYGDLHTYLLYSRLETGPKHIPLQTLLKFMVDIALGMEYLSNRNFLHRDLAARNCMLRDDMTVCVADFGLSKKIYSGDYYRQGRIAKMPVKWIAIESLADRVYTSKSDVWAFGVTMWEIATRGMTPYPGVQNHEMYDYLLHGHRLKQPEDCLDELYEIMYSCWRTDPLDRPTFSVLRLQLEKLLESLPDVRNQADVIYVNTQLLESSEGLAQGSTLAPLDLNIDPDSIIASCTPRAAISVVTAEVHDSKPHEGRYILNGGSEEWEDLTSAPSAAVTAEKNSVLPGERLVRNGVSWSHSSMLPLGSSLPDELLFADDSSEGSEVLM
Briefly: MerTk degradation in Jurkat cells (Western blot). Type of assay: cell-based. The note with it: Jurkat, 4 h, 0.001-1 μM, 4 hour-incubation at 37° C., read-out: Jurkat Max % MerTK Degradation. The method in brief:
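Jurkat cells treated 4 h at 37 °C with compound at 0.001-1 μM final. RIPA lysates quantified by BCA, then MerTK probed by Western blot against actin loading control with IR-dye secondaries and Odyssey imaging.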
A general note: In western blotting, separated proteins are transferred to a membrane and probed.

In the case of `Cn1c(=O)n(C2CCC(=O)NC2=O)c2ccc(CCCOCCN3CCC(N4CCN(Cc5ccc(-c6cn([C@H]7CC[C@H](O)CC7)c7nc(NCCC(F)(F)F)ncc67)cc5)CC4)C3)cc21` (stereo partly drawn) [I-93, 3-(3-methyl-2-oxo-5-[3-[2-(3-[4-[(4-[7-[trans-4-hydroxycyclohexy1]-2-[(3,3,3-trifluoropropyl)amino]-7H-pyrrolo[2,3-d]pyrimidin-5-yl]phenyl)methyl]piperazin-1-yl]pyrrolidin-1-y1)ethoxy]propyl]-2,3-dihydro-1H-1,3-benzodiazol-1-yl)piperidine-2,6-dione; formic acid], the Dmax was greater than 50%.

For `O=C1CC[C@H](n2c3ccccc3c3c(CCCOCCOCCN4CCN(Cc5ccc(-c6cn([C@H]7CC[C@H](O)CC7)c7nc(NCCC(F)(F)F)ncc67)cc5)CC4)ccnc32)C(=O)N1` [I-126, 3-(4-[3-[2-(2-[4-[(4-[7-[trans-4-hydroxycyclohexyl]-2-[(3,3,3-trifluoropropyl)amino]-7H-pyrrolo[2,3-d]pyrimidin-5-yl]phenyl)methyl]piperazin-1-yl]ethoxy)ethoxy]propyl]-9H-pyrido[2,3-b]indol-9-yl)piperidine-2,6-dione], the Dmax is greater than 50%.

As for `Cn1c(=O)n([C@H]2CCC(=O)NC2=O)c2cccc(COCCCN3CCN(Cc4ccc(-c5cn([C@H]6CC[C@H](O)CC6)c6nc(NCCC(F)(F)F)ncc56)cc4)CC3)c21` [I-150, 3-[3-methyl-2-oxo-4-[(3-[4-[(4-[7-[trans-4-hydroxycyclohexyl]-2-[(3,3,3-trifluoropropyl)amino]pyrrolo[2,3-d]pyrimidin-5-yl]phenyl)methyl]piperazin-1-y1]propoxy)methyl]-1,3-benzodiazol-1-yl]piperidine-2,6-dione], the Dmax is greater than 50%.

`Cn1c(=O)n([C@H]2CCC(=O)NC2=O)c2ccc(CCCN3CCC(N4CCN(Cc5ccc(-c6cn([C@H]7CC[C@H](O)CC7)c7nc(NCCC(F)(F)F)ncc67)cc5)CC4)CC3)cc21` [I-117, 3-[3-methyl-2-oxo-5-[3-(4-[4-[(4-[7-[trans-4-hydroxycyclohexy1]-2-[(3,3,3-trifluoropropyl)amino]-7H-pyrrolo[2,3-d]pyrimidin-5-yl]phenyl)methyl]piperazin-1-yl]piperidin-1-y1)propyl]-2,3-dihydro-1H-1,3-benzodiazol-1-yl]piperidine-2,6-dione]: the Dmax is greater than 50%.

As to `Cn1c(=O)n([C@H]2CCC(=O)NC2=O)c2ccc(CCCOCCOCCN3CCN(Cc4ccc(-c5cn([C@H]6CC[C@H](O)CC6)c6nc(NCCCF)ncc56)cc4)CC3)cc21` [I-88, 3-(5-[3-[2-(2-[4-[(4-[2-[(3-fluoropropyl)amino]-7-[trans-4-hydroxycyclohexyl]-7H-pyrrolo[2,3-d]pyrimidin-5yl]phenyl)methyl]piperazin-1-yl]ethoxy)ethoxy]propyl]-3-methyl-2-oxo-2,3-dihydro-1H-1,3-benzodiazol-1-yl)piperidine-2,6-dione; formic acid], the Dmax is greater than 50%.

For `CC(c1ccc(-c2cn([C@H]3CC[C@H](O)CC3)c3nc(NCCC(F)(F)F)ncc23)cc1)N1CCN(CCCCOCCCc2ccc3c(c2)n(C)c(=O)n3C2CCC(=O)NC2=O)CC1` (stereo partly drawn) [I-81, 3-[3-methyl-2-oxo-5-[3-(4-[4-[1-(4-[7-[trans-4-hydroxycyclohexyl]-2-[(3,3,3-trifluoropropyl)amino]-7H-pyrrolo[2,3-d]pyrimidin-5-yl]phenyl)ethyl]piperazin-1-y1]butoxy)propyl]-2,3-dihydro-1H-1,3-benzodiazol-1-yl]piperidine-2,6-dione], the Dmax was greater than 50%.

On to `CCC[C@H](C)Nc1ncc2c(n1)n([C@H]1CC[C@H](O)CC1)cc2[C@H]1CC[C@@H](CN2CCN(CCCO[C@H]3CCN(Cc4ccc5c(c4)n(C)c(=O)n5C4CCC(=O)NC4=O)C3)CC2)CC1` (stereo partly drawn) [I-220, 3-(3-methyl-2-oxo-5-[[(3S)-3-[3-(4-[[4-[2-[(2S)-pentan-2-ylamino]-7-[trans-4-hydroxycyclohexyl]pyrrolo[2,3-d]pyrimidin-5-yl]cyclohexyl]methyl]piperazin-1-y1)propoxy]pyrrolidin-1-yl]methyl]-1,3-benzodiazol-1-y1)piperidine-2,6-dione], for which the Dmax was greater than 50%.

For the compound `Cn1c(=O)n([C@H]2CCC(=O)NC2=O)c2ccc(CCOC3CCN(C4CCN(Cc5ccc(-c6cn([C@H]7CC[C@H](O)CC7)c7nc(NCCC(F)(F)F)ncc67)cc5)CC4)CC3)cc21` [I-155, 3-[3-methyl-2-oxo-5-[2-([1-[(4-[7-[trans-4-hydroxycyclohexy1]-2-[(3,3,3-trifluoropropyl)amino]pyrrolo[2,3-d]pyrimidin-5-yl]phenyl)methyl]-[1,4-bipiperidin]-4-yl]oxy)ethyl]-1,3-benzodiazol-1-yl]piperidine-2,6-dione; formic acid], the Dmax is greater than 50%.

Take `Cn1c(=O)n([C@H]2CCC(=O)NC2=O)c2ccc(CCCOCCOCCOCCNCc3ccc(-c4cn([C@H]5CC[C@H](O)CC5)c5nc(NCCC(F)(F)F)ncc45)cc3)cc21` [I-47, 3-[3-methyl-2-oxo-5-[1-(4-[7-[trans-4-hydroxycyclohexy1]-2-[(3,3,3-trifluoropropyl)amino]-7H-pyrrolo[2,3-d]pyrimidin-5-yl]phenyl)-5,8,11-trioxa-2-azatetradecan-14-y1]-2,3-dihydro-1H-1,3-benzodiazol-1-yl]piperidine-2,6-dione]: the Dmax is greater than 50%.

On to `Cn1c(=O)n([C@H]2CCC(=O)NC2=O)c2ccc(CCCOCCCN3CCN(Cc4ccc(-c5cn([C@H]6CC[C@H](O)CC6)c6nc(NCCC(F)F)ncc56)cc4)CC3)cc21` [I-115, 3-[5-[3-(3-[4-[(4-[2-[(3,3-difluoropropyl)amino]-7-[(1r,4r)-4-hydroxycyclohexy1]-7H-pyrrolo[2,3-d]pyrimidin-5-yl]phenyl)methyl]piperazin-1-yl]propoxy)propyl]-3-methyl-2-oxo-2,3-dihydro-1H-1,3-benzodiazol-1-yl]piperidine-2,6-dione; formic acid], for which the Dmax is greater than 50%.

Take `Cn1c(=O)n(C2CCC(=O)NC2=O)c2ccc(C#CCOCCN3CCC(N4CCN(Cc5ccc(-c6cn([C@H]7CC[C@H](O)CC7)c7nc(NCCC(F)(F)F)ncc67)cc5)CC4)C3)cc21` (stereo partly drawn) [I-85, 3-(3-methyl-2-oxo-5-[3-[2-(3-[4-[(4-[7-[trans-4-hydroxycyclohexyl]-2-[(3,3,3-trifluoropropyl)amino]-7H-pyrrolo[2,3-d]pyrimidin-5-yl]phenyl)methyl]piperazin-1-yl]pyrrolidin-1-yl)ethoxy]prop-1-yn-1-y1]-2,3-dihydro-1H-1,3-benzodiazol-1-y1)piperidine-2,6-dione; di(formic acid)]: the Dmax was greater than 50%.

As for `CCCCNc1ncc2c(-c3ccc(CN4CCC(OCCCOCCCc5ccc6c(c5)n(C)c(=O)n6[C@H]5CCC(=O)NC5=O)CC4)cc3)cn([C@H]3CC[C@H](O)CC3)c2n1` [I-66, 3-[5-[3-(3-[[1-([4-[2-(butylamino)-7-[trans-4-hydroxycyclohexyl]-7H-pyrrolo[2,3-d]pyrimidin-5-yl]phenyl]methyl)piperidin-4-yl]oxy]propoxy)propyl]-3-methyl-2-oxo-2,3-dihydro-1H-1,3-benzodiazol-1-yl]piperidine-2,6-dione], the Dmax is greater than 50%.
